The values below come from PubChem BioAssay (NCI).

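Interpolation was linear, between the two tested concentrations surrounding the appropriate level; five concentrations were tested over 48 hours in 96-well plates. TGI: concentration producing complete growth inhibition.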

Test systems include SK-OV-3 ovarian; CCRF-CEM leukemia; HOP-18 NSCLC; UACC-257 melanoma; IGROV1 ovarian; DMS 114 small cell lung; SNB-19 CNS; HL-60(TB) leukemia; CAKI-1 renal; MDA-MB-231 breast; MDA-N.
Holding throughout (assay): DTP human tumour cell line panel, 48 h

In the case of `C/C(=N\NC(=S)N(C)C)c1ncc[nH]1`, the TGI in the assay on SK-OV-3 ovarian was 21.8 µM; with CCRF-CEM leukemia it was 54.9 µM; in the assay with HOP-18 NSCLC, over 100 µM; with UACC-257 melanoma it was 7.52 µM; with IGROV1 ovarian, 7.71 µM; in the assay with DMS 114 small cell lung, 39.8 µM. Further, the values for the TGI in the assay on SNB-19 CNS and with HL-60(TB) leukemia were over 100 µM and 5.87 µM, respectively.

With `C/C(=N\NC(N)=S)c1ccc2c(c1)OCO2`, the TGI with SK-OV-3 ovarian, with CCRF-CEM leukemia, in the assay with HOP-18 NSCLC, in the assay on UACC-257 melanoma, with IGROV1 ovarian and in the assay with DMS 114 small cell lung was over 100 µM in each case. The total growth inhibition concentration (TGI) in the assay with SNB-19 CNS, in the assay with CAKI-1 renal and in the assay on HL-60(TB) leukemia was over 100 µM in each case.

As to `CC(=O)/C=C1/c2ccccc2N(C(C)=O)C1O` (stereo not given), the TGI in the assay with SK-OV-3 ovarian, in the assay with CCRF-CEM leukemia, in the assay on HOP-18 NSCLC, in the assay with UACC-257 melanoma, in the assay with IGROV1 ovarian and in the assay with DMS 114 small cell lung was over 100 µM in each case. Besides, the TGI in the assay on SNB-19 CNS, in the assay on CAKI-1 renal and in the assay with HL-60(TB) leukemia was over 100 µM each time.

Turning to `CCc1ccccc1NC(=O)CCc1nc(=S)[nH][nH]1`, the TGI in the assay with SK-OV-3 ovarian, in the assay with CCRF-CEM leukemia, in the assay with UACC-257 melanoma, with IGROV1 ovarian, in the assay on DMS 114 small cell lung and in the assay with SNB-19 CNS was over 100 µM in each case. Also, the TGI with CAKI-1 renal and in the assay on HL-60(TB) leukemia was over 100 µM each time.

As for `COc1ccc(C2(CN(C)C)COc3cc(OC)c(OC)cc3C2=O)cc1OC` (stereo not given), the TGI was over 100 µM in the assay on SK-OV-3 ovarian; 58.1 µM in the assay with CCRF-CEM leukemia; over 100 µM in the assay on HOP-18 NSCLC; over 100 µM with UACC-257 melanoma; over 100 µM in the assay on IGROV1 ovarian; 78.3 µM in the assay with DMS 114 small cell lung. For the same compound, the TGI is over 100 µM in the assay with SNB-19 CNS, over 100 µM in the assay on CAKI-1 renal and 48.2 µM with HL-60(TB) leukemia.

As to `COc1cc2c(cc1OC)-c1c(cnn1C1OC(COC(C)=O)C(OC(C)=O)C(OC(C)=O)C1OC(C)=O)CC2` (stereo not given), the TGI with SK-OV-3 ovarian, in the assay on CCRF-CEM leukemia, in the assay with UACC-257 melanoma, in the assay on IGROV1 ovarian, with DMS 114 small cell lung and in the assay with SNB-19 CNS was over 100 µM in each case. Moreover, in the assay on CAKI-1 renal, the TGI was over 100 µM.

As to `O=[N+]([O-])c1ccc(Cc2nc3ccccc3s2)cc1`, the TGI in the assay with SK-OV-3 ovarian, with CCRF-CEM leukemia, in the assay on HOP-18 NSCLC, with UACC-257 melanoma, in the assay on IGROV1 ovarian and in the assay with DMS 114 small cell lung was over 100 µM throughout. The TGI with SNB-19 CNS, in the assay with CAKI-1 renal and in the assay with HL-60(TB) leukemia was over 100 µM each time.

Take `O=C(CC(=O)Nc1ccc(Cl)cc1)NNCC(=O)Nc1nc(-c2ccccc2)cs1`: the concentration for total growth inhibition (TGI) in the assay with SK-OV-3 ovarian, in the assay with CCRF-CEM leukemia, in the assay on HOP-18 NSCLC, in the assay with IGROV1 ovarian, with DMS 114 small cell lung and in the assay with SNB-19 CNS was over 100 µM throughout. The concentration for total growth inhibition (TGI) in the assay with HL-60(TB) leukemia was over 100 µM.

In the case of `N=C(c1ccccc1)N1CCCCC1`, the TGI with HOP-18 NSCLC, in the assay on UACC-257 melanoma, with DMS 114 small cell lung, in the assay with SNB-19 CNS, in the assay with CAKI-1 renal and with HL-60(TB) leukemia was over 100 µM in each case.

As for `Cc1ccccc1C(C#N)/C(=N/NC(=O)c1cc2ccccc2cc1O)C(=O)Nc1cccc(Cl)c1` (stereo not given), the TGI in the assay with SK-OV-3 ovarian is over 100 µM; in the assay on CCRF-CEM leukemia, over 100 µM; with HOP-18 NSCLC it was 73.4 µM; with UACC-257 melanoma it was 76.1 µM; with IGROV1 ovarian it was 65.3 µM; in the assay on DMS 114 small cell lung, 51.8 µM. Further, the concentration for total growth inhibition (TGI) was over 100 µM with SNB-19 CNS, over 100 µM in the assay on CAKI-1 renal and 26.8 µM in the assay on HL-60(TB) leukemia.

Consider `CC(C)=CC(=O)Cc1nc2ccccc2[nH]c1=O`, for which the TGI in the assay on SK-OV-3 ovarian, in the assay with CCRF-CEM leukemia, with HOP-18 NSCLC, with UACC-257 melanoma, with IGROV1 ovarian and with SNB-19 CNS was over 100 µM each time. For the same compound, the TGI in the assay on CAKI-1 renal and in the assay with HL-60(TB) leukemia was over 100 µM throughout.

Turning to `CCNC(=O)C(O)C1(O)CCC2[C@@H]3CCC4=CC(=O)C=C[C@]4(C)C3[C@@H](O)C[C@@]21C` (stereo not given in full), the TGI in the assay with SK-OV-3 ovarian, with CCRF-CEM leukemia, in the assay on HOP-18 NSCLC, with UACC-257 melanoma, with IGROV1 ovarian and in the assay with DMS 114 small cell lung was over 100 µM in each case. Besides, the TGI was over 100 µM in the assay on SNB-19 CNS, over 100 µM in the assay on CAKI-1 renal and over 79.4 µM in the assay on HL-60(TB) leukemia.

Regarding `COc1ccccc1NC(=O)CC(=O)n1nc(C)c(N=Nc2ccccc2F)c1C`, the TGI in the assay on SK-OV-3 ovarian was 83.6 µM; in the assay on HOP-18 NSCLC it was over 100 µM; in the assay on UACC-257 melanoma, over 100 µM; in the assay on IGROV1 ovarian, over 100 µM; in the assay with DMS 114 small cell lung, over 100 µM; in the assay on SNB-19 CNS, over 100 µM. Also, the TGI in the assay on CAKI-1 renal and with HL-60(TB) leukemia was over 100 µM in each case.

On to `COC(=O)c1nc(-c2ccc(Cl)c(Cl)c2)nc2ccccc12`, for which the TGI in the assay with SK-OV-3 ovarian is 31.2 µM; with CCRF-CEM leukemia, over 100 µM; in the assay with HOP-18 NSCLC, 4.99 µM; in the assay with UACC-257 melanoma, over 100 µM; in the assay with IGROV1 ovarian it was over 100 µM; in the assay on DMS 114 small cell lung it was over 100 µM. In addition, the TGI in the assay on SNB-19 CNS was 79.5 µM; in the assay with CAKI-1 renal, over 100 µM; in the assay on HL-60(TB) leukemia, over 100 µM.

As to `C=CCOc1cc2c(cc1C(C)c1ccc(OC)cc1)OCO2` (stereo not given), the TGI is over 31.7 µM in the assay on CCRF-CEM leukemia; 6.44 µM in the assay with UACC-257 melanoma; over 100 µM in the assay on MDA-MB-231 breast; over 100 µM in the assay on IGROV1 ovarian; 0.838 µM in the assay with DMS 114 small cell lung; over 100 µM with SNB-19 CNS. In addition, the TGI in the assay on CAKI-1 renal is over 100 µM; in the assay with HL-60(TB) leukemia, 2.6 µM; in the assay with MDA-N it was over 100 µM.

Regarding `CSC(=S)N(C)c1nc(=[N+](C)C)ss1`, the TGI with SK-OV-3 ovarian, in the assay on CCRF-CEM leukemia, with HOP-18 NSCLC, with UACC-257 melanoma, with IGROV1 ovarian and in the assay on DMS 114 small cell lung was over 100 µM throughout. Further, the TGI in the assay with SNB-19 CNS, with CAKI-1 renal and with HL-60(TB) leukemia was over 100 µM each time.

As to `COc1ccc2[nH]c3c(cnn4cnnc34)c2c1`, the TGI in the assay on SK-OV-3 ovarian, in the assay on CCRF-CEM leukemia, in the assay with HOP-18 NSCLC, in the assay with UACC-257 melanoma, with IGROV1 ovarian and with DMS 114 small cell lung was over 100 µM throughout. Moreover, the TGI in the assay on SNB-19 CNS, in the assay on CAKI-1 renal and in the assay with HL-60(TB) leukemia was over 100 µM each time.

Take `Cc1cc2c(C(C)C)c(O)c(O)c3coc(/c1=c1/c(C)cc4c(C(C)C)c(=O)c(=O)c5coc1c45)c32`: the TGI is 33.7 µM with SK-OV-3 ovarian; 16.6 µM with CCRF-CEM leukemia; 31 µM in the assay with UACC-257 melanoma; 15.1 µM in the assay on IGROV1 ovarian; 6.48 µM in the assay with DMS 114 small cell lung; 15.6 µM in the assay with SNB-19 CNS. The TGI with CAKI-1 renal came out at 26.9 µM; with HL-60(TB) leukemia, 17.8 µM.
